This note sets out measurements from a melting point compilation (Tetko et al.; mined from patent text by program, amines drawn as free bases though some values may be those of a salt).

The term melting point denotes the temperature, or range, at which the solid turns liquid.

Take `C[Si](C)(C)C#C[C@@]1(O)[C@@H](COC(=O)c2ccc(Cl)cc2)OC(O)[C@@H]1O` (stereo partly drawn): the melting point fell in the range of 130 to 132 °C.
`CCOc1cc2c(cc1OCC)C(C(C#N)SCCO)=NCC2` (stereo not drawn) yielded a melting point of 94 to 96 °C.
Regarding `CCOc1c(Nc2cc(C(F)(F)F)ccc2OC)c(=O)c1=O`, the melting point lay within 143 to 155 °C.
Then `CCC(=O)c1cc(-c2ccccc2)no1`, with 111 to 112 °C; and `CCOC(=O)C1(NS(=O)(=O)c2ccc(F)cc2)CCCCC1`, with 96 to 98 °C.
Then `CNC(=O)C(O)C1=CC2(CCCC2)c2ccccc21` (stereo not drawn), with 136 to 138 °C.
Then `C=C(Cc1ccccc1)C(=O)NN1CCNCC1`, with 78 °C; and `Cc1c(NC(=O)c2ccc(OCc3ccc(F)cc3)cc2)ccc2cc(CN3CCCCC3)cnc12`, with 159 to 160 °C; and `N#Cc1cc(-c2ccoc2)c2ccc(COc3cc(F)cc(-c4ccccn4)c3)cc2n1`, with 198 to 200 °C.
Take `COc1ccc(Br)c(CC(C#N)C(=O)O)c1OC` (stereo not drawn): the melting point was 120 to 122 °C.
With `COc1ccccc1-c1cc2c(c(Br)cn2C)c2c1C(=O)NC2=O`, the melting point was 216 to 220 °C.
The molecule `Cc1nc(N2C[C@@H](C)N(Cc3ccc(C(F)(F)F)cc3)C2=O)sc1C(N)=O` returned a melting point of 110 to 112 °C.
Then `Cc1nc(C(=O)O)c(C(=O)NC(C)(C)C)o1`, with 186 to 188 °C.
For the molecule `CCc1cc(Oc2ccc([C@H](O)[C@@H](Cc3cccc(OC(F)(F)C(F)F)c3)C(=O)O)cc2)ccc1Cl` (racemic), the melting point fell in the range of 75 to 76 °C.
The molecule `O=C(O)c1cn(-c2ccc(F)cc2)c2cc(N3CCNC(c4ccco4)C3)c(F)cc2c1=O` (stereo not drawn) had a melting point of 242 °C.
The molecule `O=c1ccn(-c2cccc(C(F)(F)F)c2)nc1-c1ccoc1-c1ccccc1` returned a melting point of 159 to 163 °C.
For `Fc1cnc(Nc2nc3c(s2)CCN(CCCN2CCC(F)(F)CC2)c2n[nH]cc2-3)nc1`, the melting point was in the range of 238 to 240 °C.
Then `CCn1nnn(-c2cc(OCOC)c(Cl)cc2Cl)c1=O`, with 112 to 113 °C; and `CCCCOc1cc2cc(CO)c(CO)c(-c3ccnc(Cl)c3)c2cc1OC`, with 93 to 97 °C; and `O=c1[nH]c(=O)n(Cc2ccc(Cl)cc2)c2nc[nH]c12`, with 304 to 310 °C.
Turning to `OCCCc1cn(Cc2ccccc2)c2ccccc12`, the melting point was 75 °C.
Then `Nc1ccc(N2CCN(Cc3ncc(-c4ccccc4)o3)CC2)cc1`, with 130 °C.
Then `Cc1ccc2c(c1)/C(=N\NC(N)=O)C(=O)N2CCCN(C(C)C)C(C)C`, with 145 to 148 °C; and `Nc1nc(N2CCCC2)c2ncn([C@@H]3C[C@H](CO)[C@@H](O)C3)c2n1`, with 114 to 117 °C.
Then `C#CCCCCCCNC(=O)C(F)(F)F`, with 29.5 to 30 °C.
The molecule `COc1cc(Cc2cnc(N)nc2N)cc(-c2ccc(N(C)C)cc2)c1OC` registered a melting point of 230 °C.
For the molecule `CCC(c1cccc(Br)c1)c1c(O)c2ccccc2oc1=O` (stereo not drawn), the melting point is 168 to 172 °C.
Then `CNC(=O)CC1CN=C(c2cc3cc(Oc4ccc(S(C)(=O)=O)cc4)cc(OC)c3[nH]2)S1` (stereo not drawn), with 125 to 126 °C.
`CCOC(=O)/C(=N\OCC#N)c1csc(N)n1`: the melting point fell in the range of 167 to 168 °C.
Then `COc1cc(CCCCC2OC(=O)NC2=O)ccc1OCc1ccccc1` (stereo not drawn), with 92 to 93 °C.
Then `CCOc1cc2ncc(C#N)c(NCc3ccc(F)c(F)c3)c2cc1OCC`, with 167 to 169 °C; and `CC(=O)c1cc(N2CCCC2)ccc1NC(=O)c1cccc2c1OCO2`, with 139 to 141 °C; and `COc1cc(NS(=O)(=O)c2ccc(Cl)cc2)c(C(=O)Nc2ccc(S(=O)(=O)F)cc2)cc1OC`, with 216 to 219 °C.
`COc1ccc(C(=O)c2sccc2OC2OC(COC(C)=O)C(OC(C)=O)C(OC(C)=O)C2OC(C)=O)cc1` (stereo not drawn) had a melting point of 149 to 151 °C.
Then `COC(=O)c1c(N)c2ccccc2[nH]c1=O`, with 236 °C; and `O=C(Nc1ccccc1)N(CCCn1ccnc1)C1=Nc2cccc3cccc1c23`, with 240 to 250 °C; and `S=C(NCCc1ccccc1)N1CCN(c2cnccn2)CC1`, with 162 to 163 °C.
Then `CC(=O)CNC1(c2ccc(OCCCN(C)C3CCCCC3)cc2)Sc2ccccc2N(C)C1=O` (stereo not drawn), with 119 to 120 °C; and `CC(C)(CNC(=O)CSCC(=O)O)SN=O`, with 47 to 51 °C; and `CC(C)(C)c1cc([PH](=O)c2cc(C(C)(C)C)cc(C(C)(C)C)c2)cc(C(C)(C)C)c1`, with 185 °C.
Then `CCOC(=O)c1ccc(OCCOc2ccc(-c3onc(SC)c3C#N)cc2)cc1`, with 162 to 164 °C; and `CSc1ccc(CC(=O)C(=O)O)cc1`, with 165 to 167 °C; and `CCOC(=O)C=C1CCC(C#N)(c2ccc(OC)c3c2OCCO3)CC1` (stereo not drawn), with 110 to 112 °C.
On to `Cc1nc2c(OCc3ccccc3)cc(CO)cn2c1C`, for which the melting point is 213 to 215 °C.
Then `Cc1cccc(-c2sc(N)nc2-c2ccnc(-c3ccc(CN(C)C)cc3)c2)n1`, with 210 °C.
Then `CCCCC(=N)NC(=O)NC1CCCCC1`, with 146 to 148 °C; and `C#CCNC1(c2ccccc2)c2ccccc2Oc2ccccc21`, with 116 to 118 °C; and `CSc1ccc(-c2nn(Cc3ccc(F)cc3)c(=O)cc2-c2ccc(F)cc2)cc1`, with 156 °C.
`CCC(CC)CC(=O)C1=C(O)c2cc(OC)c(OC)c(OC)c2C(O)(c2ccc(OC)c(OC)c2)C1C(=O)OC` (stereo not drawn): the melting point was 132 to 133 °C.
Then `COc1cc2oc3ccc(C#N)cc3c2cc1F`, with 206 to 208 °C; and `Nc1ccc(-c2c(-c3ccccc3)c(-c3ccccc3)c(-c3ccc(N)cc3)c(-c3ccccc3)c2-c2ccccc2)cc1`, with 453 °C.
`O=C1CCC(c2ccccc2)(C2CCNC2)CC1` (stereo not drawn): the melting point is 75 to 79 °C.
Then `CCCc1c(CSc2nnc(SCCCCCC(=O)O)s2)ccc(C(C)=O)c1O`, with 67 to 74 °C; and `O=S1(=O)c2ccccc2Nc2ccc(-c3ccccc3)cc21`, with 269 to 272 °C; and `Cc1cnc2c(c1)CCCC2C(N)=S` (stereo not drawn), with 149 °C.
Then `CCOCc1cc2cccc(OC)c2o/c1=N\c1ccccc1`, with 88 to 90 °C; and `O=C1c2c(-c3ccccc3)ccnc2OCCN1Cc1cc(C(F)(F)F)cc(C(F)(F)F)c1`, with 200 to 201 °C.
Then `CC1C(=O)C2CCCCC2N2CCc3ccccc3C12` (stereo not drawn), with 144 to 148 °C; and `CC1CC(C)CC2(C1)OC(N)=NC2=O` (stereo not drawn), with 276 to 281 °C; and `C(#Cc1ccccn1)CCc1nc(-c2ccc3ccccc3c2)no1`, with 76 to 78 °C.
On to `CC1=NC(NC(=O)Nc2cccc(Br)c2)C(=O)N(CC(=O)N2CC3CCC(CC3)C2)c2c(C)cccc21` (stereo not drawn), for which the melting point was in the range of 168 to 171 °C.
Then `COC(=O)CSc1c(C)cc(C(O)(C(F)(F)F)C(F)(F)F)cc1C`, with 99 to 101 °C.
`COC(=O)C(CCC(C)(C)Cl)N(C)S(=O)(=O)NC(=O)OCc1ccccc1` (stereo not drawn) registered a melting point of 77 to 78 °C.
Then `CCn1cc(C(=O)O)c(=O)c2cc(F)c(N3CCN(C)C(COC)C3)cc21` (stereo not drawn), with 228 to 230 °C.
`CN1CCN(c2ncnc3c([N+](=O)[O-])cccc23)C1=O` returned a melting point of 207 to 210 °C.
Regarding `CC(C)C1C(=O)C(c2ccc(S(C)(=O)=O)cc2)=C1c1ccccc1` (stereo not drawn), the melting point came out at 98 °C.
Then `C=CC(=O)Nc1c(C)cccc1C`, with 144 to 145 °C.
Then `CCC(Oc1ccc2oc3cc(Cl)ccc3c2c1)C(=O)O` (stereo not drawn), with 143 to 145 °C; and `COc1ccc(CC(O)c2cc(OC)cc(OC)c2)cc1` (stereo not drawn), with 101 to 102 °C.
Then `CCCNC(=O)c1ccc(-c2nc(=O)c3ccccc3s2)nc1`, with 268 to 269 °C; and `COCc1ccc(N2CCN(Cc3c[nH]c4ncccc34)CC2)cc1`, with 162 to 163 °C; and `O=C(CO)c1ccc(C2CCCCC2)cc1`, with 104 to 106 °C.
`CC1(c2cccc(OCc3ccccc3)c2)C(=O)Nc2cc(Cl)cc(Cl)c2C1=O` (stereo not drawn) showed a melting point of 201 to 203 °C.
Then `CCOC(=O)C1=C(C)NC(=O)N(C(=O)OC(C)C)C1c1cccc(Cl)c1Cl` (stereo not drawn), with 139 to 140 °C.
As to `O=c1c2cccnc2n(-c2cccc([N+](=O)[O-])c2)c(=O)n1CC(F)(F)F`, the melting point was 228 to 229 °C.
In turn, `N#Cc1ccc2nc(C(=O)NCc3ccnc(OCC4CCOC4)c3)[nH]c(=O)c2c1` (stereo not drawn) had a melting point of 230 to 233 °C.
Consider `N#Cc1nn(-c2c(Cl)cc(C(F)(F)F)cc2Cl)c(Sc2ccccc2)c1SC(F)(F)F`, for which the melting point was 84 to 86 °C.
Then `CCC(=O)/C=C/c1cn(-c2ccccc2)nc1OCc1ccc(OCc2nc(-c3ccco3)oc2C)c(OC)c1`, with 167 to 168 °C.
The molecule `CC(=O)c1ccc(NS(=O)(=O)c2sc3ccc(Cl)cc3c2C)c(S(C)(=O)=O)c1` had a melting point of 207 to 209 °C.
Then `COc1ccc(C(CC(=O)Nc2ncccc2C)N2C(=O)c3ccccc3C2=O)cc1OC` (stereo not drawn), with 171 to 172 °C; and `CCCCn1nc(C(OC)OC)nc1Cc1ccc(-c2ccccc2-c2nnn[nH]2)nc1`, with 113 to 115 °C; and `CC(C)(Oc1ccc(C(=O)c2ccccc2)cc1)C(=O)O`, with 130 °C.
On to `NC1=NC(c2ccc(O)cc2)(c2cccc(-c3cccnc3F)c2)C2=NCCCN12` (stereo not drawn), for which the melting point lay within 164 to 181 °C.
Regarding `CCOC(=O)Oc1cc2occ(C(=O)O)c(=O)c2cc1OC(=O)OCC`, the melting point is 107 to 109 °C.
`Cn1c2ccccc2c(=O)n2nc(C#N)cc12`: the melting point fell in the range of 307 to 310 °C.
`Nc1cccc(-c2cc3[nH]c4ccc(O)cc4c3c3c2C(=O)NC3=O)c1` displayed a melting point of 279 to 284 °C.
In turn, `Cn1c(CC(=O)O)ccc1C(=O)c1ccccc1Cl` had a melting point of 140 to 141 °C.
Then `O=C1c2ccccc2C(=O)N1CC(=O)N1c2ccc(F)cc2N(Cc2ccccc2)C(=O)C2CCC[C@H]21` (single isomer, unassigned), with 266 to 268 °C.
